Source: US20040034201A1, “Enhanced affinity hyaluronan binding peptides” (priority 1997, published 2004)
Where two headings read alike, the source gives them in different places.

Tests used:
[1] = HA binding of biotinylated peptides on HA-derivatized ELISA plates
Procedure: A 15-mer phage display library was obtained from Chiron Inc. (CA). Hyaluronan (HA) was biotinylated and mixed with streptavidin-sepharose (Sigma) and washed. The Biotinylated HA was incubated with the phage library, then recovered with streptavidin-sepharose. The phage biotinylated HA-streptavidin -sepharose mixture was washed 4 times with phosphate buffered saline (PBS) and recovered phage were plated on a bacteria lawn in petri dishes. Clones were isolated and assessed for their ability to bind to HA. For the first screen, a total 75 clones were obtained after 4 cycles of screening. To assess the specificity of binding of these clones to HA, two approaches were taken. In the first, the ability of the clones to bind to biotin-sepharose or to streptavidin-sepharose were assessed. Clones were recovered from the bacteria lawn and mixed with biotin-sepharose and streptavidin-sepharose. Sepharose beads were washed 4 times with PBS and plated onto a bacteria lawn. In the second assay, clones were mixed with excess (100 ug/mL) HA (mean molecular weight: 700,000 daltons (Hyal, Ontario, Canada) together with biotinylated HA. After mixing the biotinylated HA was recovered with streptavidin-sepharose, washed as above and plated onto a bacteria lawn. Clones were sequenced in an automatic sequencer. A schematic diagram illustrating the isolation of enhanced affinity hyaluronan binding peptides from the 15-mer phage display library is shown in FIG. 1.
Enhanced affinity HA binding peptides mimicking sequences obtained from the phage display library and scrambled peptides prepared from these sequences were tested for their HA binding properties. HA was derivatized to NUNC ELISA plates and biotinylated peptides were added to the plates and incubated for 2 h at room temperature. Plates were washed 4 times with PBS and then incubated with streptavidin-peroxidase for 1 h, washed, developed with hydrogen peroxide and their optical densities were determined. Controls were conducted using BSA-coated ELISA wells.

[2] = peptide of WO 93/21312 with carboxy-terminal histidine; cited from earlier work
[3] = system: Alveolar macrophages; experiment: Random locomotion by image analysis, alveolar macrophages; type: cell-based; settings: nuclear displacement by image analysis, n = 100 cells
Procedure: (§1) Ras-transformed 10T1/2 or parental 10T1/2 fibroblasts (Egan, S. E. et al., Science 238: 202-205, 1987; Hardwick, C. et al., J. Biol. Chem. 117: 1343-1350, 1992) were cultured in DMEM containing 10% fetal bovine serum (FBS) and maintained in 5% CO2 humidified atmospheric condition. Every second passage, cells were maintained in 600 ug/mL G418 for one passage to select for maintenance of the mutant active ras-geneticin construct in cells. Cells were passaged at confluence and utilized under 20 passages. Macrophages were obtained from lung lavage 1 h after bleomycin insertion (Gelzleichter, T. R. et al., Fund. Appl. Toxicol. 30: 39-46, 1996) and used immediately in assays. Neutrophils were obtained from human blood as described and used immediately.
(§2) For routine analysis of random locomotion, 10T1/2 fibroblasts or leukocytes were subcultured into culture flasks coated with 20 ug/mL fibronectin and maintained in DMEM plus 10% FBS for 24-48 h. The enhanced affinity hyaluronan binding peptide (shown in SEQ.ID.NO.:3) or scrambled peptides were incubated with the cultures at concentrations of 50 ng to 1 ug per mL. […] Filming was conducted for up to 24 h with images recorded every 20 min.

[4] = system: 10T1/2 fibroblasts; experiment: Cell proliferation in response to serum (hemocytometer counts); type: cell-based; settings: 100 ug/mL peptide or PD98059 50 ug/mL, 48 h
Procedure: 10T1/2 fibroblasts were grown to semi-confluence and were incubated with enhanced affinity hyaluronan binding peptide (shown in SEQ.ID.NO.:3) at a concentration of 100 ug/mL for 48 h. The cells were then trypsinized in 0.12% trypsin and counted using a hematocytometer. Released cells were stained with trypan blue and only viable cells were counted.

[5] = system: punch biopsy wound; experiment: Rat punch biopsy model of skin repair; type: in vivo
Procedure: Three-month-old female Fischer rats were anesthesized and subjected to […] full thickness punch biopsies. Wounds were filled with a sterile solution of 1% collagen type 1 gel containing either PBS alone, HA binding peptide (shown in SEQ.ID.NO.:3) (20 mg/mL) or scrambled peptide (20 mg/mL) that contained the same amino acids as the HA binding peptide but in a random order. 100 uL of the collagen solution was applied to the punch biopsy wound and allowed to gel over 20 min. The wounds were then covered with a protective plastic shield that was sewn into the skin. Wounds were recovered from euthenized rats with a 9 mm punch biopsy.
Recovered punch biopsies were extracted with RIPA buffer and total protein was determined with a Biorad protein assay. Protein (50 ug) was loaded onto each lane and proteins were separated by electrophoresis on SDS-PAGE. Separated proteins were transferred to a nitrocellulose blot and the blot was processed for reactivity to anti-RHAMM antisera or anti-CD44 antibody (Dillon, P. W. et al., J. Surg. Res. 57: 170-173, 1994).
Messenger RNA was isolated by Micro-FastTrack Kit (Invitrogen, San Diego, Calif.). The quality of RNA samples was confirmed by denaturing gel electrophoresis. Reverse transcription was performed by using First Strand cDNA Synthesis kit (Clontech, Polo Alco, Calif.). Briefly, 0.2 ug of mRNA was used to generate cDNA using oligo(dT) 18 primer. Samples containing 0.2 ug of mRNA per time point was heat-denatured in DEPC-treated water for 2 min at 70° C. and incubated at 42° C. for 1 h in a total volume of 20 uL of 20 pmol primers, 0.5 mM of each dNTP, 1 unit/uL of RNase inhibitor and 200 units/ug RNA of MMLV. The reaction was stopped by heating at 94° C. for 5 min and to destroy any DNase activity. The reaction mixture was diluted to a final volume of 100 uL and aliquots were stored at −80° C. until further use.
To distinguish between amplication of genomic DNA and complementary DNA, the primer pairs were designed to enclose at least one intron on the genomic sequences of RHAMM and beta-actin. […]

[6] = system: Fibroblast (ras transformed); experiment: Random locomotion by image analysis, ras-transformed 10T1/2 fibroblasts on fibronectin; type: cell-based
Procedure: as §1, §2

[7] = system: Human neutrophils; experiment: Chemotaxis in Boyden chamber, human neutrophils to IL-8; type: cell-based; settings: MTT blue, n = 3 replicates, the values are: MTT absorbance (chemotaxis)
Procedure: as §1
(§3) To assess the effects of enhanced affinity hyaluronan binding peptides and scrambled peptides on chemotaxis, a modified multi-well boyden chamber was utilized as described by Shi, Y. et al. (J. Immunol. Methods 164: 149-154, 1993).

[8] = system: S1 macrophage cell line; experiment: Chemotaxis in Boyden chamber, S1 macrophage cell line to C5a; type: cell-based; settings: MTT blue, n = 3 replicates, the values are: MTT absorbance (chemotaxis)
Excerpt: as §3

[9] = system: Ras-transformed 10T1/2 fibroblasts; experiment: Apoptosis (Hoechst dye positive nuclei); type: cell-based; settings: 100 ug/mL peptide or PD98059 50 ug/mL; 48 h
Procedure: Ras-transformed 10T1/2 fibroblasts were grown to sub-confluence and were incubated with enhanced affinity hyaluronan binding peptide (shown in SEQ.ID.NO.:3) at a concentration of 100 ug/mL for 48 h. The cells were then stained with Hoechst dye using standard procedures and the percentage of apoptotic cells were determined by detection of positive stain in the nucleus of randomly selected cells.

[10] = system: Rat alveolar macrophages; experiment: Chemotaxis in Boyden chamber, rat alveolar macrophages to C5a; type: cell-based; settings: MTT blue, n = 3 replicates, the values are: MTT absorbance (chemotaxis)
Procedure: as §1, §3

Question: With TMTRPHFHKRQLVLS as the molecule, how does the “ability to bind HA” value [1] read?
Answer: Its value is “Enhanced affinity binding”.

Question: With KLRSQLVHHH as the molecule, how does the “ability to bind HA” value [2] read?
Answer: Its value is “unable to bind to HA”.

Question: For STMMSRSHKTRSCHH, which “ability to bind HA” value [1] is on record?
Answer: Its value is “can bind to HA”.

Question: Which “ability to bind HA” value [1] does the source give for “STMMSRSHKTRSHHV [peptide of the Formula III with a valine residue at the C-terminal]” here?
Answer: Its value is “Enhanced affinity binding”.

Question: For STMMSRSHKTRSHH, which “Rate of Locomotion, random locomotion” value [3] is on record?
Answer: The value was 3.24 ± 0.53 um/h.

Question: And the “Number of Cells (×10^6)” value [4]?
Answer: Its value is 2.4 ± 0.2 ×10^6.

Question: What about the “ability to bind HA” value [1] of the same molecule?
Answer: Its value is “can bind to HA”.

Question: And the “HA accumulation within the remodelling dermal layer” value ([5]; at 24 h, biotinylated aggrecan staining)?
Answer: The value was “increase in HA accumulation”.

Question: What about the “keratinocyte resurfacing of the wound (re-epithelialization)” value ([5]; rat, applied in collagen gel to the wound, 24 h after injury) of the same molecule?
Answer: The value was “inhibited keratinocyte resurfacing of the wound”.

Question: What about the “number of fibroblasts at the wound site” value ([5]; rat, peptide 20 mg/mL in collagen gel) of the same molecule?
Answer: The value was “reduced the number of fibroblasts”.

Question: And the “Concentrations optimal for inhibiting cell motility” value ([6]; 10T1/2 fibroblasts or leukocytes, tested 50 ng to 1 ug per mL)?
Answer: The value was 50 to 100 ng/mL.

Question: And the “Rate of Locomotion, random locomotion” value ([6]; Fibroblast (ras transformed), nuclear displacement by image analysis, n = 100 cells)?
Answer: Its value is 10.83 ± 1.07 um/h.

Question: And the Rate of Locomotion, chemotaxis [7]?
Answer: The Rate of Locomotion, chemotaxis was 0.088 ± 0.009.

Question: And the Rate of Locomotion, chemotaxis [8]?
Answer: The Rate of Locomotion, chemotaxis was 0.238 ± 0.014.

Question: And the “% Hoechst Positive Nuclei” value [9]?
Answer: Its value is 4.9 ± 0.9%.

Question: And the Rate of Locomotion, chemotaxis [10]?
Answer: Its Rate of Locomotion, chemotaxis is 0.425 ± 0.028.

Question: Which “Number of Cells (×10^6)” value [4] does the source give for `COc1cccc(-c2cc(=O)c3ccccc3o2)c1N` [PD98059, reference compound] here?
Answer: Its value is 0.5 ± 0.1 ×10^6.

Question: And the “% Hoechst Positive Nuclei” value [9]?
Answer: The value was 40 ± 2.5%.
